Experimental data from PubChem BioAssay (NCI).
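Briefly, cells in 96-well plates were exposed to five compound concentrations for 48 h, and endpoints were estimated by linear interpolation. TGI: total growth inhibition.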

What was measured:
Experiment in all cases: NCI anticancer screen, dose series, 48 h
SK-MEL-2 melanoma = system: SK-MEL-2 melanoma
SW-620 colon = system: SW-620 colon
HOP-92 NSCLC = system: HOP-92 NSCLC
M14 melanoma = system: M14 melanoma
MALME-3M melanoma = system: MALME-3M melanoma
SR leukemia = system: SR leukemia
HCT-15 colon = system: HCT-15 colon
M19-MEL melanoma = system: M19-MEL melanoma
NCI-H522 lung = system: NCI-H522 lung
LOX IMVI melanoma = system: LOX IMVI melanoma
EKVX NSCLC = system: EKVX NSCLC
DMS 114 small cell lung = system: DMS 114 small cell lung
UACC-257 melanoma = system: UACC-257 melanoma
OVCAR-5 ovarian = system: OVCAR-5 ovarian
SK-OV-3 ovarian = system: SK-OV-3 ovarian
KM20L2 colon = system: KM20L2 colon
HOP-62 NSCLC = system: HOP-62 NSCLC
RXF-631 renal = system: RXF-631 renal
A498 renal = system: A498 renal
HOP-18 NSCLC = system: HOP-18 NSCLC
A549 NSCLC = system: A549 NSCLC
SK-MEL-5 melanoma = system: SK-MEL-5 melanoma
K-562 leukemia = system: K-562 leukemia
SF-539 CNS = system: SF-539 CNS
UO-31 renal = system: UO-31 renal
NCI-H226 lung = system: NCI-H226 lung
ACHN renal = system: ACHN renal
CCRF-CEM leukemia = system: CCRF-CEM leukemia
NCI-H23 lung = system: NCI-H23 lung
HCT-116 colon = system: HCT-116 colon
SK-MEL-28 melanoma = system: SK-MEL-28 melanoma
786-0 renal = system: 786-0 renal
COLO 205 colon = system: COLO 205 colon
OVCAR-3 ovarian = system: OVCAR-3 ovarian
DLD-1 colon = system: DLD-1 colon
IGROV1 ovarian = system: IGROV1 ovarian
SF-295 CNS = system: SF-295 CNS
SNB-78 CNS = system: SNB-78 CNS
OVCAR-4 ovarian = system: OVCAR-4 ovarian
SNB-75 CNS = system: SNB-75 CNS
CAKI-1 renal = system: CAKI-1 renal
HT29 colon = system: HT29 colon
RPMI-8226 leukemia = system: RPMI-8226 leukemia
OVCAR-8 ovarian = system: OVCAR-8 ovarian
LXFL 529 NSCLC = system: LXFL 529 NSCLC
SN12C renal = system: SN12C renal
MOLT-4 leukemia = system: MOLT-4 leukemia
SF-268 CNS = system: SF-268 CNS
U251 CNS = system: U251 CNS
UACC-62 melanoma = system: UACC-62 melanoma
DMS 273 small cell lung = system: DMS 273 small cell lung
TK-10 renal = system: TK-10 renal
HCC-2998 colon = system: HCC-2998 colon
NCI-H460 lung = system: NCI-H460 lung
HL-60(TB) leukemia = system: HL-60(TB) leukemia
KM12 colon = system: KM12 colon
XF 498 CNS = system: XF 498 CNS
SNB-19 CNS = system: SNB-19 CNS
RXF 393 renal = system: RXF 393 renal

Measured: TGI

CC1(C)OC2CC3COC(=O)C3CC2O1 (stereo unspecified)
not listed: XF 498 CNS | SNB-19 CNS | RXF 393 renal
> 100 µM: all other assays above

CCO/C(CCn1[nH]c(=O)c(Cl)c(Cl)c1=O)=N\NC(=O)C(=O)NN
not listed: HOP-92 NSCLC | SR leukemia | HCT-116 colon | SNB-78 CNS
> 100 µM: all other assays above
